The values below come from patent publication US20010053771A1, “USE OF GLUCOSAMINE AND CLUCOSAMINE DERIVATIVES FOR QUICK ALLEVIATION OF ITCHING OR LOCALIZED PAIN” (priority 1997, published 2001).

What all share (assay type): in vivo, human
In experiment [1] the test system is patient suffering from sore throat caused by β-hemolytic streptococci. Kind of experiment: Spray treatment of a patient with sore throat (Example 1). The protocol: Glucosamine or one or more of its derivatives was added in the appropriate amount to one of the following formulations. The compositions thus obtained were tested as described in the Examples. All percentages are by weight (w/w) unless otherwise indicated. A patient suffering from sore throat caused by β-hemolytic streptococci was treated with a water solution (formulation 1) of N-acetyl-glucosamine (8% w/w). The solution was sprayed into the mouth during 10 seconds in order to treat the infected area. Pain relief occurred already 20 seconds after application and lasted for at least 1,5 hour. 12 hours later the same patient was treated with spray containing glucosamine HCl (9% w/w and 20% glycerol and 10% alcohol in water). Pain relief occurred again very quickly, 36 seconds after, application and lasted for at least 2 hours.

Experiment [2] relates to patient with allergy for cats. Kind of experiment: Topical treatment of itching from cat allergy (Example 7). The note with it: 5% (w/w) in composition 3. The method, then:
Glucosamine or one or more of its derivatives was added in the appropriate amount to one of the following formulations. The compositions thus obtained were tested as described in the Examples. All percentages are by weight (w/w) unless otherwise indicated. A patient with allergy for cats (person) was confronted with a stroked cat (2 years old) in a closed room (6 m×4 m×3 m) during 10 minutes. 8 minutes later itching started all over the forehead and progressed after 15 minutes to the nose (external×internal). The patient was treated on the left side of the forehead with composition 3 and on the right side of the forehead with composition 3 containing 5% (w/w) glucosamine HCl. Itching completely disappeared after 45 seconds on the right side while there was still itching on the left side. The nose was also treated inside and outside with the active cream. Itching decreased drastically already after 50 seconds.

For experiment [3], the system named is patient suffering from arthritis urica. The experiment is described as follows: Topical treatment of arthritis urica (Example 9). The note with it: 9% (w/w) in composition 2; right foot, 4 successive treatments with an interval of 10 minutes; person. The protocol: Glucosamine or one or more of its derivatives was added in the appropriate amount to one of the following formulations. The compositions thus obtained were tested as described in the Examples. All percentages are by weight (w/w) unless otherwise indicated. A patient suffering from arthritis urica, and not taking any medication, was treated with composition 2 containing 9% (w/w) glucosamine HCl all over the affected right foot by 4 successive treatments with an interval of 10 minutes.

The test system of experiment [4] is patient suffering from eczema (atopical) on the arm-bends. The experiment is described as follows: Topical treatment of atopical eczema (Example 10). To be noted: 8% (w/w) in composition 3; left arm; person. The protocol:
Glucosamine or one or more of its derivatives was added in the appropriate amount to one of the following formulations. The compositions thus obtained were tested as described in the Examples. All percentages are by weight (w/w) unless otherwise indicated. A patient suffering from eczema (atopical) (person) on the arm-bends was treated with composition 3 containing 8% (w/w) glucosamine HCl on the left arm and composition 3 on the right arm. Itching decreased drastically after 15 seconds and lasted during 2 hours only on the left arm. From the above it follows that the therapeutical compositions of the invention can be used to alleviate itching and pain which result from a variety of causes. The relief is obtained very quickly and lasts for a considerable period of time.

Experiment [5] has as its system child suffering from diaper allergy. Kind of experiment: Topical treatment of diaper allergy (Example 5). The note with it: 5% (w/w) in composition 2; applications for 1 week, 3 times a day; male, 8 months. The method, then: Glucosamine or one or more of its derivatives was added in the appropriate amount to one of the following formulations. The compositions thus obtained were tested as described in the Examples. All percentages are by weight (w/w) unless otherwise indicated. […]

For experiment [6], the system named is patient with a tendinitis due to the practice of bowling sport. Kind of experiment: Topical treatment of tendinitis due to bowling (Example 6). The note with it: 6% (w/w) in composition 3. The protocol: Glucosamine or one or more of its derivatives was added in the appropriate amount to one of the following formulations. The compositions thus obtained were tested as described in the Examples. All percentages are by weight (w/w) unless otherwise indicated.
A patient with a tendinitis due to the practice of bowling sport was treated 2 days after the onset of pain with composition 3 containing 6% (w/w) N-acetyl D-glucosamine. Pain relief occurred 25 seconds later.

For experiment [7], the system named is patient suffering from herpes simplex type I infection around the nose showing extensive fissures. Kind of experiment: Topical treatment of herpes simplex type I lesions around the nose (Example 3). The note with it: 3% (w/w) in formulation 3. The method, then:
Glucosamine or one or more of its derivatives was added in the appropriate amount to one of the following formulations. The compositions thus obtained were tested as described in the Examples. All percentages are by weight (w/w) unless otherwise indicated. A patient suffering from herpes simplex type I infection around the nose showing extensive fissures was treated with formulation 3 containing 3% glucosamine sulfate (w/w). Already after 30 seconds pain and itching relief occurred and lasted during 3 hours.

Experiment [8] concerns patient suffering from pain in the knee caused by a light collision. Kind of experiment: Topical treatment of knee pain after a collision (Example 4). The note with it: 10% (w/w) in formulation 3. The protocol:
Glucosamine or one or more of its derivatives was added in the appropriate amount to one of the following formulations. The compositions thus obtained were tested as described in the Examples. All percentages are by weight (w/w) unless otherwise indicated. A patient suffering from pain in the knee caused by a light collision during a car accident was treated with formulation 3 containing 10% (w/w) glucosamine sulfate. Pain relief occurred after 50 seconds and lasted during 3 hours.

Experiment [9] relates to patient suffering from tendinitis caused by practicing tennis. The experiment is described as follows: Topical cream treatment of tendinitis caused by tennis (Example 2). The note with it: 5% (w/w) in formulation 2 cream, applied on the skin during 2 minutes; person. The method, then: Glucosamine or one or more of its derivatives was added in the appropriate amount to one of the following formulations. The compositions thus obtained were tested as described in the Examples. All percentages are by weight (w/w) unless otherwise indicated. A patient suffering from tendinitis caused by practicing tennis was treated with formulation 2 containing glucosamine sulphate 5% (w/w). The cream was normally applied on the skin during 2 minutes to allow the penetration. Pain relief occurred already after 50 seconds and lasted for at least 2 hours. After 12 hours the same patient was treated with formulation 2 without glucosamine. There was no pain relief after similar application.

[10] abbreviates: spray 9% w/w with 20% glycerol and 10% alcohol in water, same patient 12 hours later.
Where [11] appears, read: 8% w/w in water (formulation 1), sprayed into the mouth during 10 seconds, person.

Consider `Cl.N[C@H]1C(O)O[C@H](CO)[C@@H](O)[C@@H]1O` (stereo partly drawn) [glucosamine HCl, D-glucosamine hydrochloride], for which, in experiment [1] (setting [10]), the “duration of pain relief” value is recorded as “at least 2 hours” and the “time to pain relief after application” value is 36 s. For the same molecule, the “time until itching decreased drastically” value in experiment [2] (nose treated inside and outside) worked out at 50 s. Further, in experiment [2] (right side of the forehead, person), the “time until itching completely disappeared” value is 45 s. In addition, in experiment [3], the “duration of pain relief” value came out at 4 h and the pain relief result is on record as “Gradually strong pain relief occurred”. In [4], the “duration of itching decrease” value turned out to be 2 h and the “time until itching decreased drastically” value was found to be 15 s. In addition, the “relief of itching and pains” value in experiment [5] is “always immediate relief of itching and pains”.
For the molecule `CC(=O)N[C@H]1C(O)O[C@H](CO)[C@@H](O)[C@@H]1O` (stereo partly drawn) [N-acetyl-glucosamine, N-acetyl D-glucosamine], in experiment [1] (setting [11]), the “duration of pain relief” value is “at least 1,5 hour” and the “time to pain relief after application” value was 20 s. In addition, in [6] (2 days after the onset of pain, person), the “time to pain relief” value amounted to 25 s. Moreover, in experiment [6] (after 5 successive treatments every 2 hours), the “pain after repeated treatment” value is given as “pain was completely reduced”.
In the case of `N[C@H]1C(O)O[C@H](CO)[C@@H](O)[C@@H]1O.O=S(=O)(O)O` (stereo partly drawn) [glucosamine sulfate, D-glucosamine sulfate], the closure of fissures result in experiment [7] (after 5 hours) is “most of the fissures were closed”. Besides, in [7] (person), the “duration of pain and itching relief” value was 3 h; the “time to pain and itching relief” value is 30 s. The “pain after repeated treatment” value in experiment [8] (after 3 new successive treatments every 4 hours) is “the pain was completely gone”. Further, in [8] (person), the “duration of pain relief” value was 3 h and the “time to pain relief” value is 50 s. For the same molecule, in experiment [9], the “duration of pain relief” value is listed as “at least 2 hours” and the “time to pain relief” value was 50 s.
